Measured values reported in patent US20110217309A1, “BIOLOGICAL MARKERS PREDICTIVE OF ANTI-CANCER RESPONSE TO INSULIN-LIKE GROWTH FACTOR-1 RECEPTOR KINASE INHIBITORS” (priority 2010, published 2011).

How the values were obtained:
OVCAR5 cells = assay: Cell Titer Glo proliferation assay; assay type: cell-based, human; conditions: OVCAR5, 72 hours, KRAS mutant
Experimental: (§1) Cell Lines and Culture. Human cancer cell lines, were obtained from American Type Culture Collection (ATCC, Manassas, Va.), or the following additional indicated sources, and cultured in media as described. […] Cells were maintained at 37° C. in an incubator under an atmosphere containing 5% CO2. The cells were routinely screened for the presence of mycoplasma (MycoAlert, Cambrex Bio Science, Baltimore, Md.). For growth inhibition assays, cells were plated and allowed to proliferate for 24 hours. […] Cell viability was assayed using the Cell Titer-Glo reagent (Promega Corp., Madison, Wis.).
(§2) Proliferation Assay. […] The basis of the assay is a luminescent quantitation of ATP present in a cell culture plate well. In essence, the greater the number of viable cells in the well, the greater the level of ATP present. The assay utilizes a substrate that binds ATP to produce a luminescent signal, which can be read on a luminometer. Unless otherwise noted, the manufacturer's instructions were followed exactly. Briefly, on Day 1, cells were plated in 120 μl of 10% serum-containing growth media at a density of 4000 cells/well in a white polystyrene 96 well assay plate. […] After 72 h incubation with the inhibitor, the cells were assayed. Results were calculated as a fraction of the DMSO controlled cells.

MDAH-2774 cells = assay: Cell Titer Glo proliferation assay; assay type: cell-based, human; conditions: MDAH-2774, 72 hours, KRAS mutant
Experimental: as §1, §2

SKNAS tumors = assay: Tumor xenograft study; conditions: treatment in vivo for 10-14 days
FaDu tumors = assay: Tumor xenograft study; conditions: treatment in vivo for 10-14 days
H295R = assay: Cell Titer Glo proliferation assay; assay type: cell-based; conditions: Homo sapiens, NCI-H295R; read-out: EC50 in culture in vitro
From the text: (§3) Cell Lines and Culture. Human cancer cell lines, were obtained from American Type Culture Collection (ATCC, Manassas, Va.), or the following additional indicated sources, and cultured in media as described. Tumor types are also indicated: H295R (adrenocortical carcinoma; ATCC), NCI-[…], NCI-[…], SW1573 (NSCLC; ATCC), […], BxPC3 (pancreatic; ATCC), OVCAR5 (ovarian; NCI), MDAH-2774 (ovarian; ATCC), Igrov1 (ovarian; NCI), GEO (colon; Roswell Park Cancer Institute (RPCC)), HT-29 (colon; ATCC), RKO (colon; ATCC), […], 8226 (myeloma; ATCC), H929 (myeloma; ATCC), U266 (myeloma; ATCC), SKES1 (Ewings sarcoma; ATCC), RDES (Ewings sarcoma; ATCC), RD (rhabdomyosarcoma; ATCC), DU4475 (breast; ATCC), SKNAS (neuroblastoma; ATCC), 2650 (nasal SCC; ATCC), OVCAR4 (ovarian; NCI), A673 (Ewings sarcoma; ATCC), BT474 (breast; ATCC), 1386 (oral SCC; MSKCC, NY), 1186 (SCCHN; MSKCC, NY), Colo205 (colon; ATCC), HCT-15 (colon; ATCC), Fadu (oral SCC; ATCC), SKBR3 (breast; ATCC), 1483 (HNSCC; MSKCC, NY), HSC-2 (HNSCC; RIKEN BioResource Center, Tsukuba, Ibaraki, 305-0074, Japan), SKOV-3 (ovarian; ATCC), OVCAR-3 (ovarian; NCI), OVCAR-8 (ovarian; NCI), CaOV3 (ovarian; ATCC). […] The cells were routinely screened for the presence of mycoplasma (MycoAlert, Cambrex Bio Science, Baltimore, Md.). For growth inhibition assays, cells were plated and allowed to proliferate for 24 hours. […] Cell viability was assayed using the Cell Titer-Glo reagent (Promega Corp., Madison, Wis.). Proliferation Assay. […] The basis of the assay is a luminescent quantitation of ATP present in a cell culture plate well. In essence, the greater the number of viable cells in the well, the greater the level of ATP present. The assay utilizes a substrate that binds ATP to produce a luminescent signal, which can be read on a luminometer. Unless otherwise noted, the manufacturer's instructions were followed exactly. Briefly, on Day 1, cells were plated in 120 μl of 10% serum-containing growth media at a density of 4000 cells/well in a white polystyrene 96 well assay plate. […] After 72 h incubation with the inhibitor, the cells were assayed. Results were calculated as a fraction of the DMSO controlled cells.

SKNAS = assay: Cell Titer Glo proliferation assay; assay type: cell-based; conditions: Homo sapiens, SK-N-AS, read-out: EC50 in culture in vitro
From the text: as §3

BxPC3 = assay: Cell Titer Glo proliferation assay; assay type: cell-based; conditions: Homo sapiens, BXPC-3, read-out: EC50 in culture in vitro
From the text: as §3

H460 = assay: Cell Titer Glo proliferation assay; assay type: cell-based; conditions: Homo sapiens, NCI-H460; read-out: EC50 in culture in vitro
From the text: as §3

FaDu = assay: Cell Titer Glo proliferation assay; assay type: cell-based; conditions: Homo sapiens, read-out: EC50 in culture in vitro
From the text: as §3

Colo205 = assay: Cell Titer Glo proliferation assay; assay type: cell-based; conditions: Homo sapiens, COLO 205, read-out: EC50 in culture in vitro
From the text: as §3

MC116 = assay: Cell Titer Glo proliferation assay, 88 cell line panel; assay type: cell-based, human; conditions: MC116 lymphoma, PTEN mutant, 72 hours
Experimental: as §2
(§4) This included cell lines representing ovarian cancer (A2780 and EFO-27), SCCHN (HSC-4), SCLC (NCI-H446), CRC (KM12), lymphoma (MC116), breast cancer (BT549 and HCC70), and prostate cancer (PC3).

EFO-27 = assay: as above; assay type: cell-based, human; conditions: EFO-27 ovarian cancer, PTEN mutant, 72 hours
Experimental: as §2, §4

BT549 = assay: as above; assay type: cell-based, human; conditions: BT549 breast cancer, PTEN mutant, 72 hours
Experimental: as §2, §4

PC3 = assay: as above; assay type: cell-based, human; conditions: PC3 prostate cancer, PTEN mutant, 72 hours
Experimental: as §2, §4

NCI-H446 = assay: as above; assay type: cell-based, human; conditions: NCI-H446 SCLC, PTEN mutant, 72 hours
Experimental: as §2, §4

KM12 = assay: as above; assay type: cell-based, human; conditions: KM12 CRC, PTEN mutant, 72 hours
Experimental: as §2, §4

A2780 = assay: as above; assay type: cell-based, human; conditions: A2780 ovarian cancer, PTEN mutant, 72 hours
Experimental: as §2, §4

C[C@]1(O)C[C@@H](c2nc(-c3ccc4ccc(-c5ccccc5)nc4c3)c3c(N)nccn32)C1 [OSI-906, cis-3-[8-amino-1-(2-phenyl-quinolin-7-yl)-imidazo[1,5-a]pyrazin-3-yl]-1-methyl-cyclobutanol]
EC50, proliferation (OVCAR5 cells): sub-micromolar
EC50, proliferation (MDAH-2774 cells): sub-micromolar
% TGI (tumor growth inhibition) (SKNAS tumors): 71%
% TGI (tumor growth inhibition) (FaDu tumors): < 30%
EC50 (H295R): < 1000 nM
EC50 (SKNAS): < 1000 nM
EC50 (BxPC3): < 1000 nM
EC50 (H460): > 10000 nM
EC50 (FaDu): > 10000 nM
EC50 (Colo205): < 1000 nM
sensitivity to OSI-906 (MC116): insensitive (insensitive (EC50>10 μM))
sensitivity to OSI-906 (EFO-27): insensitive (insensitive (EC50>10 μM))
sensitivity to OSI-906 (BT549): insensitive (insensitive (EC50>10 μM))
sensitivity to OSI-906 (PC3): insensitive (insensitive (EC50>10 μM))
sensitivity to OSI-906 (NCI-H446): insensitive (insensitive (EC50>10 μM))
sensitivity to OSI-906 (KM12): insensitive (insensitive (EC50>10 μM))
sensitivity to OSI-906 (A2780): insensitive (insensitive (EC50>10 μM))
